Laboratory results reported in patent US20220193047A1, “METHODS OF ENHANCING RADIOTHERAPY USING FERROPTOSIS INDUCERS AS RADIOSENSITIZERS” (THE TRUSTEES OF COLUMBIA UNIVERSITY IN THE CITY OF NEW YORK, priority 2019, published 2022).
Entries after “also recorded” stand apart in the source; their conditions may differ.

Legend:
Format in all cases: cell-based
[1] = system: percent tail DNA in HT-1080 cells; test: Comet assay; conditions: for DNA damage (percent tail DNA), combined with radiation: HT-1080, 6 Gy, 30 minutes or 4 hours; for DNA single strand damage (percent tail DNA), compound alone: HT-1080, 10 μM IKE or 1 μM RSL3, 30 minutes or 4 hours
Experimental: 100,000 HT-1080 cells were seeded per well in 6-well plates and incubated overnight. On the next day, the cells were treated with ferroptosis modulators and/or radiation, then returned to the incubator for 30 minutes or 4 hours before being harvested with trypsin and counted. The comet assay was performed using the CometAssay kit (Trevigen) following the alkaline comet assay product instructions. All images were captured on a Zeiss LSM 700 confocal microscope with constant laser intensity for all analyzed samples. The fluorescent signal of each comet was analyzed using NIH ImageJ software.
To test for other forms of DNA damage that cannot be detected by the γH2AX assay, a comet assay, which detects single strand DNA damage in addition to double strand breaks, was performed in HT-1080 cells treated under the same conditions.

[2] = system: γH2AX foci in HT-1080 cells; test: γH2AX immunofluorescence staining; conditions: for Number of γH2AX foci: HT-1080, 30 minutes, 0 or 6 Gy, 10 μM IKE, 1 μM RSL3, 10 μM ferrostatin-1; for γH2AX foci in irradiated groups vs DMSO: HT-1080, 6 h post-treatment, 6 Gy; for γH2AX foci formation, compound alone: HT-1080, 6 h, no radiation
Experimental: 10,000 cells were seeded on cover slips placed inside wells of 6-well plates. The next day, cells were treated with ferroptosis modulators and/or radiation, then returned to the incubator for 30 minutes or 6 hours. After the growth medium was removed, the cells were washed with PBS and fixed with 100 μl 4% paraformaldehyde per well for 10 minutes at room temperature. After three washes with PBS, cells were permeabilized with 100 μl Triton X-100 (0.1% v/v) per well for 10 minutes incubation at room temperature. Non-specific protein binding was blocked with 100 μl of BSA (1% v/v) per well for 20 minutes at room temperature. After removing excess BSA, 100 μl of primary mouse monoclonal anti-phospho histone-H2AX antibody (1:500) was added to each well for a 1-hour incubation at room temperature. Cells were washed with PBS and incubated with 100 μl of secondary antibody per well for 45 minutes at room temperature in the dark. Cells were washed with PBS and mounted on slides with one drop of Prolong anti-fade reagent with DAPI (Invitrogen) per coverslip. Slides were stored at 4° C. in the dark before analysis on a Zeiss LSM 700 confocal microscope with constant laser intensity for all analyzed samples.
Mechanisms of the cellular lethality from radiation are thought to be mainly derived from the downstream caspase-dependent apoptosis induced by DNA damage, including complex double-strand DNA breaks (Lomax et al., 2013; Morgan and Lawrence, 2015). Therefore, it was desired to determine if ferroptosis inducers and radiation induce DNA damage or affect DNA repair. The extent of these effects of radiation was evaluated by measuring DNA damage and caspase activation in HT-1080 cells co-treated with radiation and ferroptosis inducers. […] The cells were either treated with radiation (6 Gy) or not irradiated (0 Gy) as a control.

[3] = system: lipid peroxidation in HT-1080 cells; test: Lipid ROS assay by flow cytometry (C11-BODIPY); conditions: HT-1080, 24 h, 6 Gy radiation with 1 μM IKE or 50 nM RSL3; ferrostatin-1 co-treatment
Experimental: 0.5 million cells were seeded in 10 cm dishes. The next day, they were co-treated with ferroptosis-modulating compounds and radiation and returned to the incubator. On the following day, cells were harvested in 15 ml tubes and washed twice with PBS followed by re-suspending in 500 μl of PBS containing 10 μM of BODIPY-C11 dye (Thermo Fisher Scientific, cat #D3861), and incubated at 37° C. for 30 minutes. The cells were then collected at 300× g for 5 minutes, washed with PBS three times, and subjected to the flow cytometry analysis. C6 flow cytometry system (BD Accuri cytometers) was used for the flow cytometer analysis. A minimum of 10,000 cells were analyzed per condition.
To confirm that radiation causes lipid peroxidation in these cells, lipid peroxidation was also measured with C-11 BODIPY (581/591), a membrane-targeted lipid sensor dye. […] The resulting enhancement was reversed in both cases by also co-treating the cells with ferrostatin-1.

HT-1080 cells [4] = test: Clonogenic assay with Cs-137 gamma radiation, HT-1080; conditions: for Highest observed coefficient of Drug Interaction (CDI) in combination with IR: HT-1080; for Enhancement of radiation effect on clonogenic survival: HT-1080, cell death inducer plus radiation; for CDI with 4 Gy IR / CDI with 2 Gy IR: HT-1080 cells, CDI<1 synergy; for CDI with 2 Gy IR: inducer concentration (300 nM IKE, 20 nM RSL3, 1 nM staurosporine, 2 nM doxorubicin, 300 nM rapamycin, 100 ng/mL TNF + 20 μM Z-VAD-FMK + 300 nM birinapant)
Experimental: 500 cells were seeded per well in 6-well plates in their respective growth media and incubated overnight. The next day, cells were co-treated with DMSO or compounds and radiation using a Gammacell 40 Caesium-137 irradiator (Theratronics). Plates were monitored every day using a light microscope for formation of colonies in the DMSO-treated wells. When colonies of >50 cells are clearly visible, the growth medium was discarded from all plates. The cells were washed with PBS, then fixed and stained with crystal violet solution (0.05% crystal violet, 1% formaldehyde, 1% methanol in PBS). Colonies were then directly visualized and counted.
We tested their ability to prevent clonogenic growth, along with DMSO-treated controls.
The coefficient of drug interaction (CDI), used to compute interaction between two drugs, was used to quantify synergy between cell death inducers and radiation according to the formula CDI=AB/(A×B), where AB is the surviving fraction of the combination treatment, and A and B are the surviving fractions of the individual treatments.

HT-1080 cells [5] = test: Microbeam irradiation and clonogenic assay; conditions: HT-1080, clonogenic survival
Experimental: 300-500 HT-1080 cells were plated on polypropylene film treated with 3.5 μg/cm^2 Cell-Tak adhesive (BD Biosciences). The next day, cells were stained with Hoechst 33342 for 30 min. Cells were imaged, and their center-of-gravity coordinates were registered to automatically locate them by the microbeam control program. For nuclear irradiation, protons (^1H+) were directed by a precision beam to the center of the nucleus. For cytoplasmic irradiation, protons were directed to two locations 7 μm away from the ends of the major axis of each nucleus, as previously described (Wu et al., 1999). In each case, the beam has an accuracy of ±0.2 μm with 95% efficiency. Post-irradiation, cells were trypsinized and re-plated at a density of 500 cells per well in 6-well plates for clonogenic assays.
To target the microbeam, cells were labeled with Hoechst stain and imaged. Nuclear radiation was delivered to the center of gravity of the cell nucleus, whereas cytoplasmic radiation was delivered to two sites 7 microns away from the nuclear edge along the nuclear long axis (FIG. 5A). Using this method, we first established dose responses of these cells to nuclear and cytoplasmic radiation. […] Compared to conventional photon radiation, these doses approximately correspond to 1 Gy to the nucleus and between 1-5 Gy to the cytoplasm, a therapeutically relevant dose range that is consistent with our previous experiments.

cleaved caspase-3 = test: Western blot of cleaved caspase-3; conditions: for Cleaved caspase-3, added to radiation: HT-1080, 6 Gy, 24 h; for Cleavage of caspase-3, compound alone: HT-1080, IKE or RSL3 24 h, staurosporine 500 nM for 6 h
Experimental: 1 million cells were seeded in 10 cm dishes and treated with compounds and/or radiation on the next day. […] After quantification by Bradford, samples were mixed with 5×SDS loading buffer and separated by SDS-polyacrylamide gel electrophoresis. After transfer, membranes were blocked for 10 min in Tris-buffered saline (pH 7.4) with 1% Tween-20 (TBS-T) with 5% milk and incubated in primary antibody overnight at 4° C. Following 3× for 5 min washes in TBS-T, the membrane was incubated with secondary antibodies for 1 hr. The membrane was washed again in TBST 3× for 5 min prior to visualization using enhanced chemiluminescence (ECL Western Blotting Substrate, Pierce). Antibody for cleaved caspase 3 (Cell Signaling Technology, #9661) was used at 1:1000 and detected using a Peroxidase AffiniPure Goat Anti-Rabbit IgG (H+L) (Jackson ImmunoResearch, 111-295-144) at 1:5000 dilution.
DNA damage is a potent inducer of apoptosis. […] Despite this, some quantity of 17-kDa cleaved caspase-3 was still detectable in the Z-VAD-FMK-treated sample. To further check for potential radiation-induced apoptosis in this model at a later time point, we attempted to rescue the effects of radiation using 100 μM Z-VAD-FMK after 48, 72, and 96 h (FIG. 10).

SMILES | DNA damage (percent tail DNA), combined with radiation [1] | Number of γH2AX foci [2] | γH2AX foci in irradiated groups vs DMSO [2] | C-11 BODIPY fluorescence [3] | Colony formation after radiation alone (HT-1080 cells [4]; HT-1080, 2 or 4 Gy radiation, no ferroptosis inducer) | Synergy between IKE or RSL3 and radiation in colony formation (HT-1080 cells [4]; HT-1080, co-treatment with ferroptosis inhibitor) | Synergy between sorafenib and radiation in colony formation (HT-1080 cells [4]; HT-1080, co-treatment with ferrostatin-1) | DNA single strand damage (percent tail DNA), compound alone [1] | γH2AX foci formation, compound alone [2] | Synergy with cytoplasmic microbeam radiation (HT-1080 cells [5]) | Synergy with nuclear microbeam radiation (HT-1080 cells [5]) | Cleaved caspase-3, added to radiation (cleaved caspase-3) | Cleavage of caspase-3, compound alone (cleaved caspase-3) | Highest observed coefficient of Drug Interaction (CDI) in combination with IR (HT-1080 cells [4]) | Enhancement of radiation effect on clonogenic survival (HT-1080 cells [4]) | CDI with 4 Gy IR (HT-1080 cells [4]) | CDI with 2 Gy IR (HT-1080 cells [4])
CCOC(=O)c1ccc(NC2CCCCC2)c(N)c1 [ferrostatin-1] | did not observe a significant protective effect | did not affect the number of observed γH2AX foci | no differences were observed | reversed | significantly rescued colony formation; also recorded: partially rescued cell death induced by radiation alone | suppress the synergy | partially suppressible | – | – | – | – | – | – | – | – | – | –
COC(=O)c1ccc([C@@H]2c3[nH]c4ccccc4c3C[C@@H](C(=O)OC)N2C(=O)CCl)cc1 [RSL3, Ras Synthetic Lethal 3] | no significant enhancement of DNA damage | did not affect the number of observed γH2AX foci | no differences were observed | significantly increased C-11 BODIPY fluorescence | – | – | – | not detect a significant increase | did not result in γH2AX foci formation | synergized strongly | no synergy | did not further increase the amount of cleaved caspase-3 | did not induce detectable cleavage of caspase-3 | 0.09 | significantly enhanced the effects of radiation | 0.09 | 0.27
CC(C)Oc1ccc(C(=O)Cn2ccnc2)cc1-n1c(CN2CCN(C(=O)COc3ccc(Cl)cc3)CC2)nc2ccccc2c1=O [IKE, imidazole ketone erastin] | no significant enhancement of DNA damage | did not affect the number of observed γH2AX foci | no differences were observed | significantly increased C-11 BODIPY fluorescence | – | – | – | not detect a significant increase | did not result in γH2AX foci formation | synergized strongly | – | did not further increase the amount of cleaved caspase-3 | did not induce detectable cleavage of caspase-3 | 0.17 | significantly enhanced the effects of radiation | 0.17 | 0.35
